Measured values from publication PMC7127091 (Bioorganic & Medicinal Chemistry, 2010).

Tested on: human cytomegalovirus (HCMV) strain Davis
Assay: Anti-HCMV assay in HEL fibroblasts
Format: cell-based
Settings: HCMV replication in cell culture

Row | Compound | anti-HCMV activity (in words)
1 | C[C@H](NC(=O)[C@@]1(Cc2ccccc2)CCN1C(=O)OCc1ccccc1)C(=O)NC(C)(C)C [(R,S)-4a, (2R,1’S)-2-Benzyl-1-benzyloxycarbonyl-2-[(1’-tert-butylcarbamoyl)ethyl]carbamoyl-azetidine] | retain the anti-HCMV activity
2 | CC(C)C[C@H](NC(=O)[C@@]1(Cc2ccccc2)CCN1C(=O)OCc1ccccc1)C(N)=O [(R,S)-7d, (2R,1’S)-2-Benzyl-1-benzyloxycarbonyl-2-[(1’-carbamoyl-3’-methyl)butyl]carbamoyl-azetidine] | maintain measurable anti-HCMV activity
3 | C[C@@H](NC(=O)[C@]1(Cc2ccccc2)CCN1C(=O)OCc1ccccc1)C(N)=O [(S,R)-7a, (2S,1’R)-2-Benzyl-1-benzyloxycarbonyl-2-[(1’-carbamoyl)ethyl]carbamoylazetidine] | maintain measurable anti-HCMV activity
4 | C[C@H](NC(=O)[C@]1(Cc2ccccc2)CCN1C(=O)OCc1ccccc1)C(=O)NC(C)(C)C [(S,S)-4a, (2S,1’S)-2-Benzyl-1-benzyloxycarbonyl-2-[(1’-tert-butylcarbamoyl)ethyl]carbamoyl-azetidine] | retain the anti-HCMV activity
5 | CC(C)CNC(=O)[C@H](C)NC(=O)[C@]1(Cc2ccccc2)CCN1C(=O)OCc1ccccc1 [(S,S)-4c, (2S,1’S)-2-Benzyl-1-benzyloxycarbonyl-2-[(1’-isobutylcarbamoyl)ethyl]carbamoyl-azetidine] | retain the anti-HCMV activity
6 | CC(C)[C@H](NC(=O)[C@]1(Cc2ccccc2)CCN1C(=O)OCc1ccccc1)C(N)=O [(S,S)-7c, (2S,1’S)-2-Benzyl-1-benzyloxycarbonyl-2-[(1’-carbamoyl-2’-methyl)propyl]carbamoyl-azetidine] | maintain measurable anti-HCMV activity
7 | C[C@H](NC(=O)[C@]1(Cc2ccccc2)CCN1C(=O)OCC1c2ccccc2-c2ccccc21)C(N)=O [(S,S)-10a, (2S,1’S)-2-Benzyl-2-[(1’-carbamoyl)ethyl]carbamoyl-1-(9-fluorenylmethoxy)carbonyl-azetidine] | inactive against HCMV
8 | C[C@H](NC(=O)[C@]1(Cc2ccccc2)CCN1C(=O)NCc1ccccc1)C(N)=O [(S,S)-10h, (2S,1’S)-2-Benzyl-1-benzylcarbamoyl-2-[(1’-carbamoyl)ethyl]carbamoylazetidine] | inactive
9 | C[C@H](NC(=O)[C@]1(Cc2ccccc2)CCN1C(=O)N[C@@H](C)c1ccccc1)C(N)=O [(S,S)-10i, (2S,1’S,1’’S)-2-Benzyl-2-[(1’’-carbamoyl)ethyl]carbamoyl-1-[(1’-phenyl)ethyl]carbamoyl-azetidine] | inactive
10 | C[C@H](NC(=O)[C@H](Cc1ccccc1)NC(=O)OCc1ccccc1)C(N)=O [compound 11, Z-Phe-Ala-NH2] | unable to inhibit the replication of HCMV
11 | C[C@H](NC(=O)[C@H](Cc1ccccc1)NC(=O)OCc1ccccc1)C(=O)NC(C)(C)C [compound 12, Z-Phe-Ala-NH^tBu] | unable to inhibit the replication of HCMV
12 | (2S,1’S)-2-Benzyl-2-[(1’-carbamoyl)ethyl]carbamoyl-1-phenetylcarbonylazetidine [(S,S)-10g] | inactive

Same assay, conditions: read-out: EC50 HCMV; Davis strain, 100 PFU, HEL fibroblasts, 7 days

Row | Compound | EC50
13 | (2S,1’S)-2-Benzyl-2-[(1’-carbamoyl)ethyl]carbamoyl-1-(4-nitrobenzyloxy)carbonyl-azetidine [(S,S)-10c] | > 20 µM
14 | (2S,1’S)-2-Benzyl-2-[(1’-carbamoyl)ethyl]carbamoyl-1-phenetylcarbonylazetidine [(S,S)-10g] | > 100 µM
